Test results published in patent US4529593A, “Use of gallium salts to treat disorders of calcium homeostasis” (Sloan-Kettering Institute for Cancer Research, priority 1984, dated 1985).

What was measured:
bone turnover = bone turnover in a patient with multiple myeloma and extensive bone destruction; type: in vivo; details: 200 mg/sq m/d×7 d infusion; for urine OH--Proline: previous 95.4; for urine Calcium: previous 618; for urine Phosphorus: previous 1630; for Urine Volume: previous 3640
Protocol: Summary: Patients with bone metastasis suffer progressive erosion of bone which causes pain, immobilization and fractures. Clinically, bone metastases are evaluated by sequential x-rays over a period of months to years. Other measures have recently been employed to measure bone turnover in patients with both cancer and non-cancerous bone resorption. In general, increased bone turnover is associated with increased loss of calcium into the urine and with increased excretion of hydroxyproline ([…]). Measurements of these parameters have been used to assess whether a new drug affects bone resorption (Siris, E. S. et al, New Engl J Med 302:310, 1980). We recently measured these parameters in a patient with multiple myeloma and extensive bone destruction who received gallium nitrate (200 mg/sq m/d×7 d by infusion).

explanted bones = assay: PGE2 release from explanted fetal rat bones; type: cell-based
[1] = oral absorption and excretion of gallium nitrate in the dog; type: in vivo; details: for plasma gallium concentration: single oral dose 1200 mg by gavage
Protocol: To evaluate the oral absorption and excretion of gallium nitrate, a concentrated solution of the drug was administered to a dog by oral gavage (total dose=1200 mg). Sequential plasma samples and the next 24 hour urinary volume were collected and assayed for gallium concentration by a flameless atomic absorption sprectrophotometer (Kelsen, D. P. et al, Cancer 46:2009, 1980).
The subsequent 24 hour urine volume was 183 ml and it contained a total amount of 1.13 mg of elemental gallium. Assuming similar patterns of excretion in humans and dogs, it is estimated that approximately 0.5-2% of an orally administered dose is absorbed and excreted into the urine.

[2] = test system: bone mineral (metaphysis); assay: gallium incorporation into bone mineral, X-ray diffraction; type: in vivo, rats
Excerpt: Conceivably, gallium promotes or stabilizes crystal structure to produce matrix with more crystalline hydroxyapatite, or the drug promotes growth rather than dissolution of smaller crystallites.

[3] = intravenous infusion, clinical dose; Kelsen et al 1980; cited from earlier work
animal and human tumors = details: certain animal and human tumors; Warrell 1983, Adamson 1975; cited from earlier work
[4] = test system: bone cells (particularly osteoclasts); assay: histology of cultured rat bones (toxicity to bone cells); type: cell-based
Excerpt: Samples of cultured rat bones used in experiments previously described herein were fixed, decalcified and stained with hematoxylin and eosin. Histologic sections were examined by light microscopy.

[5] = test system: cancer-related hypercalcemia; assay: treatment of cancer-related hypercalcemia with gallium nitrate; type: in vivo, patients; details: for Serum calcium, Post-Treatment: 100 mg/sq m/d × 5 d; for Total Serum Calcium, Post-Treatment: 200 mg/sq m/d × 5-7 d
Protocol: Summary: In the initial study, gallium nitrate was used for the treatment of 10 patients with cancer-related hypercalcemia. The daily dose of drug was 200 mg/sq m administered as a continuous infusion for durations ranging from 5-7 days. The diagnoses of this patient population and the change in total serum calcium concentration in response to this therapy are presented in Table 4a.
The subsequent increase of their disease was not accompanied by an increase in serum calcium which indicates a persistent control of the metabolic problem despite lack of control of the underlying cancer. All other patients who received the drug manifested progressive cancer despite control of the hypercalcemia. […] In a subsequent study, we further reduced the daily dose of gallium nitrate to 100 mg/sq m administered for 5 days. At a lower dose, 5 of 8 patients were normalized (Table 4b). These preliminary clinical results reflect our preclinical studies previously detailed, namely that there exists a distinct dose-response relation to the anti-calcium effect (Warrell, R. P. Jr, Bockman, R. S. et al, J. Clin. Invest. 73:1487 (1984 )).

kidney = details: Leyland-Jones et al 1983; cited from earlier work
[6] = resorption of devitalized bone particles from treated rats; details: particles from treated rats vs controls
Excerpt: Devitalized bone particles (i.e. bones containing only mineral and matrix without any cellular component) were studied.

O=[N+]([O-])[O-].O=[N+]([O-])[O-].O=[N+]([O-])[O-].[Ga+3] [gallium nitrate]
urine OH--Proline (bone turnover; day 8): 19.0 mg/24 h
urine Calcium (bone turnover; day 8): 97 mg/24 h
urine Phosphorus (bone turnover; day 8): 419 mg/24 h
Urine Volume (bone turnover; day 8): 3225 ml/24 h
amount of calcium and hydroxyproline excretion (bone turnover; myeloma patient): marked decrease
bone pain (bone turnover; myeloma patient): substantial decrease in bone pain
effect upon the underlying disease (bone turnover; myeloma patient): no effect upon the underlying disease
requirement for narcotics (bone turnover; myeloma patient): reduced requirement for narcotics
urine OH--Proline (bone turnover; treatment day 1): 76.0 mg/24 h
urine Calcium (bone turnover; treatment day 1): 502 mg/24 h
urine Phosphorus (bone turnover; treatment day 1): 567 mg/24 h
Urine Volume (bone turnover; treatment day 1): 4365 ml/24 h
urine OH--Proline (bone turnover; treatment day 4): 23.9 mg/24 h
urine Calcium (bone turnover; treatment day 4): 239 mg/24 h
urine Phosphorus (bone turnover; treatment day 4): 607 mg/24 h
Urine Volume (bone turnover; treatment day 4): 3620 ml/24 h
PGE2 release from explanted bones (explanted bones; 10 mcg/ml, 24-48 h, vs non-treated bones): no change in PGE2 over control
PGE2 release (explanted bones; 48 h preincubation, 1, 5 and 10 mcg/ml): no significant change in PGE2 release
PGE2 (explanted bones; PTH, gallium 1 mcg/ml, 48 h preincubation, 0 gallium: 1.4, control 1.2): 2.2 ng/bone
PGE2 (explanted bones; PTH, gallium 5 mcg/ml, 48 h preincubation, 0 gallium: 1.4, control 1.2): 1.3 ng/bone
PGE2 (explanted bones; PTH, gallium 10 mcg/ml, 48 h preincubation, 0 gallium: 1.4, control 1.2): 3.9 ng/bone
PGE2 release of gallium treated bones on exposure to lymphokine, but not PTH (explanted bones; gallium treated bones exposed to lymphokine): significant increase in PGE2 release
PGE2 (explanted bones; lymphokine, gallium 1 mcg/ml, 48 h preincubation, 0 gallium: 17.1, control 2.0): 17.4 ng/bone
PGE2 (explanted bones; lymphokine, gallium 5 mcg/ml, 48 h preincubation, 0 gallium: 17.1, control 2.0): 16.7 ng/bone
PGE2 (explanted bones; lymphokine, gallium 10 mcg/ml, 48 h preincubation, 0 gallium: 17.1, control 2.0): 15.1 ng/bone
oral gallium nitrate dose estimated to achieve effective plasma levels ([1]; 70 kg human, extrapolated from dog data): 0.5-20 gms
toxic reaction ([1]; dog, oral 1200 mg): no toxic reaction
total amount of elemental gallium in urine ([1]; dog, oral 1200 mg, 24 hour urine): 1.13 mg
plasma gallium concentration ([1]; dog, 0 hrs): 0 µg/mL
plasma gallium concentration ([1]; dog, 0.25 hrs): 0.5 µg/mL
plasma gallium concentration ([1]; dog, 0.5 hrs): 1.25 µg/mL
plasma gallium concentration ([1]; dog, 1 hr): 1.37 µg/mL
plasma gallium concentration ([1]; dog, 2 hrs): 2.75 µg/mL
plasma gallium concentration ([1]; dog, 4 hrs): 2.0 µg/mL
plasma gallium concentration ([1]; dog, 24 hrs): 0.75 µg/mL
crystal size in metaphyseal-derived particles (X-ray diffraction) ([2]; gallium treated animals vs controls): marked increase in crystal size
gallium incorporation into bone ([2]; rats treated with gallium nitrate): incorporated into the bone metaphysis where more active bone mineral turnover was occurring and into the metabolically more active crystalline pool
steady-state plasma gallium concentration [3]: 0.9 to 2.0 µg/mL
anticancer activity (animal and human tumors): modest anticancer activity
lethal toxicity to bone cells ([4]; pharmacologic concentrations): do not cause lethal toxicity to bone cells
cellular components (histology) ([4]; pharmacologic concentrations, 72 hrs, compared with mithramycin-treated bones): normal cellular components
bone cell morphology ([4]; relative to untreated control bones, 72 hrs): no differences in bone cell morphology
patients normalized ([5]; 100 mg/sq m for 5 days): 5 of 8
Serum calcium, Post-Treatment ([5]; Patient 1, Breast, pre-treatment 13.9): 11.3 mg/dL
Serum calcium, Post-Treatment ([5]; Patient 2, Anus, pre-treatment 12.7): 6.3 mg/dL
Serum calcium, Post-Treatment ([5]; Patient 3, Kidney, pre-treatment 14.3): 12.0 mg/dL
Serum calcium, Post-Treatment ([5]; Patient 4, Breast, pre-treatment 14.5): 8.7 mg/dL
Serum calcium, Post-Treatment ([5]; Patient 5, Pancreas, pre-treatment 14.6): 10.0 mg/dL
Serum calcium, Post-Treatment ([5]; Patient 6, Myeloma, pre-treatment 15.0): 13.7 mg/dL
Serum calcium, Post-Treatment ([5]; Patient 7, Lung, pre-treatment 13.0): 10.8 mg/dL
Serum calcium, Post-Treatment ([5]; Patient 8, Breast, pre-treatment 17.0): 9.0 mg/dL
response (serum calcium concentration) ([5]; 200 mg/sq m/d continuous infusion 5-7 days, 10 patients): all patients responded to this treatment by a reduction in serum calcium concentration to normal (and frequently sub-normal) values
Total Serum Calcium, Post-Treatment ([5]; Patient 1, Breast, pre-treatment 13.8): 8.9 mg/dL
Total Serum Calcium, Post-Treatment ([5]; Patient 2, Breast, pre-treatment 15.2): 8.5 mg/dL
Total Serum Calcium, Post-Treatment ([5]; Patient 3, Lymphoma, pre-treatment 15.6): 6.6 mg/dL
Total Serum Calcium, Post-Treatment ([5]; Patient 4, Head & Neck, pre-treatment 12.3): 8.5 mg/dL
Total Serum Calcium, Post-Treatment ([5]; Patient 5, Breast, pre-treatment 14.4): 7.7 mg/dL
Total Serum Calcium, Post-Treatment ([5]; Patient 6, Lymphoma, pre-treatment 15.6): 8.6 mg/dL
Total Serum Calcium, Post-Treatment ([5]; Patient 7, Lung, pre-treatment 12.5): 7.0 mg/dL
Total Serum Calcium, Post-Treatment ([5]; Patient 8, Penis, pre-treatment 12.3): 9.3 mg/dL
Total Serum Calcium, Post-Treatment ([5]; Patient 9, Head & Neck, pre-treatment 13.5): 7.8 mg/dL
Total Serum Calcium, Post-Treatment ([5]; Patient 10, Lung, pre-treatment 13.7): 9.3 mg/dL
size of a lymphomatous mass ([5]; 200 mg/sq m/d, Patient 5, followed by progression and death): transient decrease in the size of a lymphomatous mass
anti-cancer effect associated with hypocalcemic effect ([5]; 200 mg/sq m/d, all patients except Patient 5): not associated with any anti-cancer effect
nephrotoxicity (kidney): generally reversible and that it is not cumulative
susceptibility of devitalized bone particles to resorption [6]: significantly less susceptible to resorption than controls
